Here are results for 19 compounds from patent publication US20230339952A1, “MACROCYCLIC HETEROCYCLES AND USES THEREOF” (Kumquat Biosciences Inc., priority 2022, published 2023).

In one assay the target is SOS1 (Homo sapiens (Human), UniProt Q07889). Briefly: Ras-SOS interaction assay (HTRF), K-Ras G13D utilized. Format: binding. Particulars: K-Ras G13D.
Assay [1] deals with NCI-H1975 (ATCC CRL-5908) cell line comprising an EGFR T790M L858R double mutation. Nature of the assay: EGFR-SOS cellular inhibition assay (CellTiter-Glo cell proliferation). The class given is cell-based. Particulars: Homo sapiens.
Description: A CellTiter-Glo (CTG) luminescent based assay (Promega) is used to assess growth of the cells, as a measurement of the ability of the compounds herein to inhibit EGFR signaling in the cells. […] The day after plating, cells are treated with a dilution series (e.g., a 9 point 3-fold dilution series) of the compounds herein (e.g., approximately 125 μL final volume per well).
Where [2] appears, read: 120 h, NCI-H1975 cell proliferation, approximately 5 days, read-out: H1975 IC50.
Where [3] appears, read: read-out: IC50 value against SOS1.

Like-named read-outs stand apart in the source and are kept apart here.

Chain of SOS1 (Q07889 564-1049): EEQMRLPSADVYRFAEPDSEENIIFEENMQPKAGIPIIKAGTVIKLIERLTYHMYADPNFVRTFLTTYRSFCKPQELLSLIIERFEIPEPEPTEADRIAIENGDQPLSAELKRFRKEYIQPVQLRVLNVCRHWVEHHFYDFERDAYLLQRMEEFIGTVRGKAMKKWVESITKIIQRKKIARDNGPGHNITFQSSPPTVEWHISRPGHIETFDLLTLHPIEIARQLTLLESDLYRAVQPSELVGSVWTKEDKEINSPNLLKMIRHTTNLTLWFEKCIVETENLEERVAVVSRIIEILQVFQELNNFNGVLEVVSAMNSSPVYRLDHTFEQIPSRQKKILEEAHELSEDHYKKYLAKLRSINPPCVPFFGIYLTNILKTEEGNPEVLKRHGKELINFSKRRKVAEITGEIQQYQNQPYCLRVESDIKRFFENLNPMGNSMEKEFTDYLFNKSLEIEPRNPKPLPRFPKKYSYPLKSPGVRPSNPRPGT

As a reminder, the IC50 is the concentration at which inhibition is half-maximal. As for `Cc1nnc2c3cc(N4CCOCC4)nc(c13)OCCCCCCN1CCC(CC1)C(F)(F)c1cccc(c1)[C@@H](C)N2` [Compound 141, (R)-2,2-difluoro-6^4,4-dimethyl-6^7-morpholino-7-oxa-5-aza-6(1,5)-pyrido[3,4-d]pyridazina-1(4,1)-piperidina-3(1,3)-benzenacyclotridecaphane], the half-inhibitory concentration (IC50) on SOS1 (read-out: SOS1 IC50) is under 100 nM; in assay [1] (setting [2]), under 1000 nM.

On to `C[C@H]1Nc2ncnc3c2cc(C2(C#N)CC2)c(=O)n3CCCNC(=O)CCN2CCC(CC2)C(F)(F)c2cccc1c2` [Compound 144, 1-((4R)-2,2-difluoro-4-methyl-6^7,11-dioxo-6^7,6^8-dihydro-5,10-diaza-6(4,8)-pyrido[2,3-d]pyrimidina-1(4,1)-piperidina-3(1,3)-benzenacyclotridecaphane-6^6-yl)cyclopropane-1-carbonitrile], for which the half-inhibitory concentration (IC50) at SOS1 (read-out: SOS1 IC50) was under 100 nM; in assay [1] (setting [2]) it was under 1000 nM.

As for `C[C@H]1Nc2ncnc3c2cc(C2(C#N)CC2)c(=O)n3CCCCNC(=O)CN2CCC(CC2)C(F)(F)c2cccc1c2F` [Compound 147, 1-((4R)-3^2,2,2-trifluoro-4-methyl-6^7,12-dioxo-6^7,6^8-dihydro-5,11-diaza-6(4,8)-pyrido[2,3-d]pyrimidina-1(4,1)-piperidina-3(1,3)-benzenacyclotridecaphane-6^6-yl)cyclopropane-1-carbonitrile], the IC50 on SOS1 (read-out: SOS1 IC50) was under 100 nM; in assay [1] (setting [2]), under 1000 nM.

As to `CC(C)N1CCC(c2cc3c4ncnc3n(c2=O)CCCC/C=C/CN2CCC(CC2)C(F)(F)c2cccc(c2)[C@@H](C)N4)CC1` [Compound 149, (4R,E)-2,2-difluoro-6^6-(1-isopropylpiperidin-4-yl)-4-methyl-6^7,6^8-dihydro-5-aza-6(4,8)-pyrido[2,3-d]pyrimidina-1(4,1)-piperidina-3(1,3)-benzenacyclotridecaphan-11-en-6^7-one], the IC50 at SOS1 (read-out: SOS1 IC50) was under 100 nM; in assay [1] (setting [2]), under 1000 nM.

`C[C@H]1Nc2ncnc3c2cc(C2CCS(=O)(=O)CC2)c(=O)n3CCCCCN2CCC(CC2)CCC(F)(F)c2cccc1c2F` [Compound 151, (3R)-1^6-(1,1-dioxidotetrahydro-2H-thiopyran-4-yl)-4^2,5,5-trifluoro-3-methyl-1^7,1^8-dihydro-2-aza-1(4,8)-pyrido[2,3-d]pyrimidina-8(4,1)-piperidina-4(1,3)-benzenacyclotridecaphan-1^7-one]: the IC50 on SOS1 (read-out: SOS1 IC50) is under 100 nM; in assay [1] (setting [2]), under 1000 nM.

Regarding `C[C@H]1Nc2ncnc3c2cc(C2(C#N)CC2)c(=O)n3CCCCNC(=O)[C@H](C)N2CCC(CC2)C(F)(F)c2cccc1c2` [Compound 153, 1-((4R,13S)-2,2-difluoro-4,13-dimethyl-6^7,12-dioxo-6^7,6^8-dihydro-5,11-diaza-6(4,8)-pyrido[2,3-d]pyrimidina-1(4,1)-piperidina-3(1,3)-benzenacyclotridecaphane-6^6-yl)cyclopropane-1-carbonitrile], the IC50 is under 100 nM on SOS1 (read-out: SOS1 IC50) and under 1000 nM in assay [1] (setting [2]).

For `CC(C)N1CCN(c2cc3c4ncnc3n(c2=O)CCCCCN2CCC(CC2)CCC(F)(F)c2cccc(c2)[C@@H](C)N4)CC1` [Compound 154, (3R)-5,5-difluoro-1^6-(4-isopropylpiperazin-1-yl)-3-methyl-1^7,1^8-dihydro-2-aza-1(4,8)-pyrido[2,3-d]pyrimidina-8(4,1)-piperidina-4(1,3)-benzenacyclotridecaphan-1^7-one], the results for the 50% inhibitory concentration (IC50) (at SOS1 (read-out: SOS1 IC50); in assay [1] (setting [2])) were under 100 nM and under 1000 nM, respectively.

As for `C[C@H]1Nc2ncnc3c2cc(C2CCS(=O)(=O)CC2)c(=O)n3CCCCCCN2CCC(CC2)CC(F)(F)c2cccc1c2F` [Compound 156, (3R)-1^6-(1,1-dioxidothiomorpholino)-4^2,5,5-trifluoro-3-methyl-1^7,1^8-dihydro-2-aza-1(4,8)-pyrido[2,3-d]pyrimidina-7(4,1)-piperidina-4(1,3)-benzenacyclotridecaphan-1^7-one], the results for the IC50 (on SOS1 (read-out: SOS1 IC50); in assay [1] (setting [2])) were under 100 nM and under 1000 nM, respectively.

On to `C[C@H]1Nc2ncnc3c2cc(C2(C#N)CC2)c(=O)n3CC(=O)NCCCCN2CCC(CC2)C(F)(F)c2cccc1c2F` [Compound 158, 1-((4R)-3^2,2,2-trifluoro-4-methyl-6^7,8-dioxo-6^7,6^8-dihydro-5,9-diaza-6(4,8)-pyrido[2,3-d]pyrimidina-1(4,1)-piperidina-3(1,3)-benzenacyclotridecaphane-6^6-yl)cyclopropane-1-carbonitrile], for which the figures for the IC50 (at SOS1 (read-out: SOS1 IC50); in assay [1] (setting [2])) were under 100 nM and under 1000 nM, respectively.

In the case of `C[C@H]1Nc2ncnc3c2cc(C2(C#N)CC2)c(=O)n3CCCC/C=C\CN2CCC(CC2)C(F)(F)c2cccc1c2` [Compound 159, 1-((4R,Z)-2,2-difluoro-4-methyl-6^7-oxo-6^7,6^8-dihydro-5-aza-6(4,8)-pyrido[2,3-d]pyrimidina-1(4,1)-piperidina-3(1,3)-benzenacyclotridecaphan-11-en-6^6-yl)cyclopropane-1-carbonitrile], the half-inhibitory concentration (IC50) on SOS1 (setting [3]) is under 50 nM; at SOS1 (read-out: SOS1 IC50), under 100 nM; in assay [1] (setting [2]), under 1000 nM; in assay [1] (NCI-H1975, EGFR T790M L858R double mutation, read-out: IC50 in inhibiting growth of NCI-H1975 cell line) it was under 500 nM.

For the compound `C[C@H]1Nc2ncnc3c2cc(C2CCS(=O)(=O)CC2)c(=O)n3CCCCn2cc(nn2)CN2CCC(CC2)C(F)(F)c2cccc1c2` [Compound 160, (6R,Z)-8^6-(1,1-dioxidotetrahydro-2H-thiopyran-4-yl)-4,4-difluoro-6-methyl-8^7,8^8-dihydro-1^1H-7-aza-8 (4,8)-pyrido[2,3-d]pyrimidina-3(1,4)-piperidina-1(4,1)-triazola-5(1,3)-benzenacyclododecaphan-8^7-one], the figures for the IC50 (at SOS1 (read-out: SOS1 IC50); in assay [1] (setting [2])) were under 100 nM and under 1000 nM, respectively.

For `C[C@H]1Nc2ncnc3c2cc(C2CCS(=O)(=O)CC2)c(=O)n3CCCCCCCN2CC(C2)CC(F)(F)c2cccc1c2` [Compound 161, (3R)-1^6-(1,1-dioxidotetrahydro-2H-thiopyran-4-yl)-5,5-difluoro-3-methyl-1^7,1^8-dihydro-2-aza-1(4,8)-pyrido[2,3-d]pyrimidina-7(3,1)-azetidina-4(1,3)-benzenacyclotetradecaphan-1^7-one], the half-inhibitory concentration (IC50) at SOS1 (read-out: SOS1 IC50) is under 100 nM; in assay [1] (setting [2]), under 1000 nM.

Regarding `CC(C)N1CCC(c2cc3c4ncnc3n(c2=O)CCCCCCCN2CCC(CC2)C(F)(F)c2cccc(c2F)[C@@H](C)N4)CC1` [Compound 162, (4R)-3^2,2,2-trifluoro-6^6-(1-isopropylpiperidin-4-yl)-4-methyl-6^7,6^8-dihydro-5-aza-6(4,8)-pyrido[2,3-d]pyrimidina-1(4,1)-piperidina-3(1,3)-benzenacyclotridecaphan-6^7-one], the concentration for half-maximal inhibition (IC50) was under 100 nM on SOS1 (read-out: SOS1 IC50) and under 1000 nM in assay [1] (setting [2]).

Turning to `CC(C)N1CCN(c2cc3c4ncnc3n(c2=O)CC(=O)N(C)CCCCN2CCC(CC2)C(F)(F)c2cccc(c2)[C@@H](C)N4)CC1` [Compound 163, (4R)-2,2-difluoro-6^6-(4-isopropylpiperazin-1-yl)-4,9-dimethyl-6^7,6^8-dihydro-5,9-diaza-6(4,8)-pyrido[2,3-d]pyrimidina-1(4,1)-piperidina-3(1,3)-benzenacyclotridecaphane-6^7,8-dione], the IC50 on SOS1 (read-out: SOS1 IC50) was under 100 nM; in assay [1] (setting [2]), under 1000 nM.

As for `Cc1nc2c3cc(C4(C#N)CC4)c(=O)n(c3n1)CCC/C=C\CN1CCC(CC1)C(F)(F)c1cccc(c1)[C@@H](C)N2` [Compound 166, 1-((4R,Z)-2,2-difluoro-6^2,4-dimethyl-6^7-oxo-6^7,6^8-dihydro-5-aza-6(4,8)-pyrido[2,3-d]pyrimidina-1(4,1)-piperidina-3(1,3)-benzenacyclododecaphan-10-en-6^6-yl)cyclopropane-1-carbonitrile], the values for the 50% inhibitory concentration (IC50) (on SOS1 (setting [3]); on SOS1 (read-out: SOS1 IC50); in assay [1] (setting [2])) were under 50 nM, under 100 nM and under 1000 nM, respectively.

On to `Cc1nc2c3cc(C4(C#N)CC4)c(=O)n(c3n1)CCCC/C=C\CN1CCC(CC1)C(F)(F)c1cccc(c1F)[C@@H](C)N2` [Compound 168, 1-((4R,Z)-3^2,2,2-trifluoro-6^2,4-dimethyl-6^7-oxo-6^7,6^8-dihydro-5-aza-6(4,8)-pyrido[2,3-d]pyrimidina-1(4,1)-piperidina-3(1,3)-benzenacyclotridecaphan-11-en-6^6-yl)cyclopropane-1-carbonitrile], for which the figures for the 50% inhibitory concentration (IC50) (at SOS1 (setting [3]); on SOS1 (read-out: SOS1 IC50); in assay [1] (setting [2])) were under 50 nM, under 100 nM and 1000 to 10000 nM, respectively.

In the case of `Cc1nc2c3cc(C4(C#N)CC4)c(=O)n(c3n1)CCCCCN1CCC(CC1)C(F)(F)c1cccc(c1)[C@@H](C)N2` [Compound 169, 1-((4R)-2,2-difluoro-6^2,4-dimethyl-6^7-oxo-6^7,6^8-dihydro-5-aza-6(4,8)-pyrido[2,3-d]pyrimidina-1(4,1)-piperidina-3(1,3)-benzenacycloundecaphane-6^6-yl)cyclopropane-1-carbonitrile], the IC50 was under 100 nM on SOS1 (read-out: SOS1 IC50) and under 1000 nM in assay [1] (setting [2]).

For the compound `Cc1nc2c3cc(C4(C#N)CC4)c(=O)n(c3n1)CC/C=C\CN1CCC(CC1)C(F)(F)c1cccc(c1)[C@@H](C)N2` [Compound 172, 1-((4R,Z)-2,2-difluoro-6^2,4-dimethyl-6^7-oxo-6^7,6^8-dihydro-5-aza-6(4,8)-pyrido[2,3-d]pyrimidina-1(4,1)-piperidina-3(1,3)-benzenacycloundecaphan-9-en-6^6-yl)cyclopropane-1-carbonitrile], the figures for the half-maximal inhibitory concentration (IC50) (on SOS1 (read-out: SOS1 IC50); in assay [1] (setting [2])) were 100 to 5000 nM and under 1000 nM, respectively.

Turning to `COc1nnc2c3cc(C4CCS(=O)(=O)CC4)c(nc13)OCCCCCCCN1CCC(CC1)C(F)(F)c1cccc(c1F)[C@@H](C)N2` [Compound 177, (R)-4-(3^2,2,2-trifluoro-6^8-methoxy-4-methyl-7-oxa-5-aza-6(5,2)-pyrido[2,3-d]pyridazina-1(4,1)-piperidina-3(1,3)-benzenacyclotetradecaphane-6^3-yl)tetrahydro-2H-thiopyran 1,1-dioxide], the half-maximal inhibitory concentration (IC50) at SOS1 (read-out: SOS1 IC50) is under 100 nM; in assay [1] (setting [2]) it was under 1000 nM.
